ChEMBL document CHEMBL1121621, “Synthesis and antiarrhythmic activity of alpha, alpha-bis[(dialkylamino)alkyl]phenylacetamides” (J Med Chem, 1980)
Calls of active or inactive are those of the source. No cut-off for these calls is given here.

Tests used:
[1] = tested on: Canis familiaris; assay: Compound was evaluated for onset of action after oral administration at a dose 25 mg/kg to dog.; format: functional, Canis lupus familiaris
[2] = tested on: Canis familiaris; assay: Antiarrhythmic activity was evaluated in mixed-breed or Beagle dogs after intravenous administration.; format: functional, Canis lupus familiaris, Heart
[3] = tested on: Canis familiaris; assay: Minimum effective dose evaluated in mixed-breed or Beagle dogs after intravenous administration; format: functional; conditions: Canis lupus familiaris, read-out: MED
[4] = tested on: Canis familiaris; assay: Compound was evaluated for duration of action after oral administration at a dose 25 mg/kg to dog.; format: functional, Canis lupus familiaris
[5] = Therapeutic ratio in mixed-breed or Beagle dogs after intravenous administration of the compound.; format: ADME, Canis lupus familiaris; conditions: dog, in vivo, read-out: TR
[6] = tested on: Canis familiaris; assay: Activity duration index was evaluated in mixed-breed or Beagle dogs after intravenous administration.; format: functional, Canis lupus familiaris
[7] = tested on: Canis familiaris; assay: Compound was evaluated for maximum reduction of ectopic beats after oral administration at a dose 25 mg/kg to dog.; format: functional, Canis lupus familiaris, Heart
[8] = tested on: Canis familiaris; assay: Minimum effective dose was evaluated in mixed-breed or Beagle dogs after intravenous administration of the compound; format: functional; conditions: Canis lupus familiaris, read-out: MED
[9] = Therapeutic ratio was evaluated in mixed-breed or Beagle dogs after intravenous administration of the compound; format: ADME, Canis lupus familiaris; conditions: dog, in vivo, read-out: TR
[10] = tested on: Canis familiaris; assay: Compound was evaluated for maximum reduction of ectopic beats after oral administration at a dose 25 mg/kg to dog; L means lethal; format: functional, organism-based; set-up: dose 25 mg/kg; conditions: Canis lupus familiaris; Heart
[11] = tested on: Canis familiaris; assay: Compound was evaluated for maximum reduction of ectopic beats after oral administration at a dose 15 mg/kg to dog.; format: functional, Canis lupus familiaris, Heart
[12] = tested on: Canis familiaris; assay: Compound was evaluated for duration of action after oral administration at a dose 15 mg/kg to dog.; format: functional, Canis lupus familiaris
[13] = tested on: Canis familiaris; assay: Compound was evaluated for onset of action after oral administration at a dose 15 mg/kg to dog.; format: functional, Canis lupus familiaris
[14] = tested on: Canis familiaris; assay: Compound was evaluated for maximum reduction of ectopic beats after oral administration at a dose 15 mg/kg to dog; IA means inactive; format: functional, organism-based; set-up: dose 15 mg/kg; conditions: Canis lupus familiaris; Heart
[15] = tested on: Canis familiaris; assay: Compound was evaluated for maximum reduction of ectopic beats after oral administration at a dose 25 mg/kg to dog; IA means inactive; format: functional, organism-based; set-up: dose 25 mg/kg; conditions: Canis lupus familiaris; Heart
[16] = tested on: Canis familiaris; assay: Compound was evaluated for maximum reduction of ectopic beats after oral administration at a dose 12 mg/kg to dog.; format: functional, Canis lupus familiaris, Heart
[17] = tested on: Canis familiaris; assay: Compound was evaluated for duration of action after oral administration at a dose 12 mg/kg to dog.; format: functional, Canis lupus familiaris
[18] = tested on: Canis familiaris; assay: Compound was evaluated for onset of action after oral administration at a dose 12 mg/kg to dog.; format: functional, Canis lupus familiaris

| Compound | Onset of action [1] | AR [2] | minimal effective dose [3] | Duration [4] | selectivity ratio [5] | ADI [6] | Reduction [7] | further results |
| --- | --- | --- | --- | --- | --- | --- | --- | --- |
| CC(C)N(CCC(CCN(C(C)C)C(C)C)(C(N)=O)c1ccc(Cl)cc1)C(C)C | 30 min | 6.6 | 3 mg/kg | >330 min | 2.3 | 0.86 | 100% |  |
| CC(C)N(CCC(CCN1CCOCC1)(C(N)=O)c1ccccc1Cl)C(C)C (configuration not stated) |  | 3.4 |  |  |  | 0.49 |  | minimal effective dose [8]: 11.7 mg/kg |
| CC(C)N(CCC(CCN(C(C)C)C(C)C)(C(N)=O)c1ccc(C(C)(C)C)cc1)C(C)C |  |  | 2 mg/kg |  |  | 1.35 |  | selectivity ratio [9]: 4.9 |
| CC(C)N(CCC(CCN(C(C)C)C(C)C)(C(N)=O)c1ccc(F)cc1)C(C)C | 88 min | 6.7 | 2 mg/kg | 147 min | 12 | 1.19 | 92% |  |
| CC(C)N(CCC(CCN(C)C)(C(N)=O)c1ccccc1)C(C)C (configuration not stated) | 131 min | 2.6 | 12 mg/kg | 200 min | > 7.5 | 0.4 | 100% |  |
| CC(C)N(CCC(CCC1CCCCC1)(C(N)=O)c1ccccc1Cl)C(C)C (configuration not stated) |  |  | 3.5 mg/kg |  |  | 3.07 |  | Reduction [10]: Lethal; selectivity ratio [9]: 6.1 |
| CC(C)N(CCC(CCN(C)C1CCCCC1)(C(N)=O)c1ccccc1)C(C)C (configuration not stated) |  | 7.1 | 2.7 mg/kg |  | 4.1 | 1.36 |  | Reduction [11]: 69%; Duration [12]: 30 min; Onset of action [13]: 300 min |
| CC(C)N(CCC(C(N)=O)(c1ccccc1)c1ccccn1)C(C)C (configuration not stated) [DISOPYRAMIDE] | 172 min | 4.1 | 6.6 mg/kg | 120 min | 6.6 | 0.5 | 79% | Reduction [14]: inactive |
| CC(C)N(CCC(CCN(C(C)C)C(C)C)(C(N)=O)c1ccccc1)C(C)C | 200 min | 6.5 | 5.5 mg/kg | 200 min | 3.4 | 1.31 | 89% |  |
| CC(C)N(CCC(CCN1CC2CCC(CC2)C1)(C(N)=O)c1ccccc1)C(C)C (configuration not stated) |  | 7 | 2.5 mg/kg |  | 12.5 | 0.96 |  | Reduction [15]: inactive |
| CC(C)N(CCC(CCN1CCCCC1)(C(N)=O)c1ccccc1F)C(C)C (configuration not stated) | 45 min | 6 | 1.8 mg/kg | 300 min | 18 | 1.47 | 100% | Reduction [16]: 67%; Duration [17]: 90 min; Onset of action [18]: 90 min |
| CC(C)N(CCC(CCN(C)C1CCCCC1)(C(N)=O)c1ccccc1F)C(C)C (configuration not stated) | 203 min | 6 | 1.5 mg/kg | 150 min | 12.7 | 0.98 | 67% |  |
| CC(C)N(CCC(CCN1CCCCC1)(C(N)=O)c1ccccc1Cl)C(C)C (configuration not stated) [DISOBUTAMIDE] | 80 min | 8.4 | 3.3 mg/kg | >360 min | 8.8 | 1.76 |  | Reduction [16]: 49%; Duration [17]: 75 min; Max reduction [11]: 90%; Onset of action [18]: 135 min; Max reduction [7]: 100%; Duration [12]: 210 min; Onset of action [13]: 85 min |
| CC(C)N(CCC(CCN1CCCCC1)(C(N)=O)c1ccccc1)C(C)C (configuration not stated) | 169 min | 6.1 | 5.5 mg/kg | >300 min | 8.2 | 0.45 | 97% |  |
| CC(C)N(CCC(CCN(C(C)C)C(C)C)(C(N)=O)c1ccccc1F)C(C)C | 90 min | 6.1 | 3 mg/kg | 200 min | 15 | 1.52 | 87% |  |
